According to ChEMBL document CHEMBL1153958, “Design and optimization of selective serotonin re-uptake inhibitors with high synthetic accessibility. Part 1” (Bioorg Med Chem Lett, 2009):

Tests used:
[1] = molecular target: Voltage-gated inwardly rectifying potassium channel KCNH2 (Homo sapiens, UniProt Q12809); test: Displacement of [3H]dofetilide from human ERG expressed in HEK293 cells
[2] = molecular target: Sodium-dependent serotonin transporter (Homo sapiens, UniProt P31645); test: Inhibition of radiolabeled serotonin reuptake at human SERT expressed in HEK293 cells; type: cell-based
[3] = molecular target: Sodium-dependent noradrenaline transporter (Homo sapiens, UniProt P23975); test: Inhibition of radiolabeled noradrenaline reuptake at human NET expressed in HEK293 cells; type: cell-based
[4] = molecular target: Sodium-dependent dopamine transporter (Homo sapiens, UniProt Q01959); test: Inhibition of radiolabeled dopamine reuptake at human DAT expressed in HEK293 cells; type: cell-based
[5] = molecular target: T1, 5-hydroxytryptamine receptor 3A (Homo sapiens, UniProt P46098); test: Displacement of [3H]granisetron from human 5HT3 receptor expressed in HEK293 cells; type: cell-based
T1 sequence (P46098 whole entry): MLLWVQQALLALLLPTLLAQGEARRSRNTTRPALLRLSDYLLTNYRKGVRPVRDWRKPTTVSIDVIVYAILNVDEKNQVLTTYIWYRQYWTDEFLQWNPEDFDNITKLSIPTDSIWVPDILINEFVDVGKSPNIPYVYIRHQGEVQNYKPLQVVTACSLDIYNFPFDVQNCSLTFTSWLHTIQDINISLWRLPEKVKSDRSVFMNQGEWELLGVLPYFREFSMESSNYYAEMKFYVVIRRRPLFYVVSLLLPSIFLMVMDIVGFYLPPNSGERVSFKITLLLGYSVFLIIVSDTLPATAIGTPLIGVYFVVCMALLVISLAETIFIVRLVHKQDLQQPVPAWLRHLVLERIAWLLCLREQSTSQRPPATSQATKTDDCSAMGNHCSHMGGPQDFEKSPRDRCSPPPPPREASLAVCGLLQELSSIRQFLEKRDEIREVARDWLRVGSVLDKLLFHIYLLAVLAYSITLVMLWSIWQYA

Sequence of Sodium-dependent dopamine transporter (Q01959 whole entry): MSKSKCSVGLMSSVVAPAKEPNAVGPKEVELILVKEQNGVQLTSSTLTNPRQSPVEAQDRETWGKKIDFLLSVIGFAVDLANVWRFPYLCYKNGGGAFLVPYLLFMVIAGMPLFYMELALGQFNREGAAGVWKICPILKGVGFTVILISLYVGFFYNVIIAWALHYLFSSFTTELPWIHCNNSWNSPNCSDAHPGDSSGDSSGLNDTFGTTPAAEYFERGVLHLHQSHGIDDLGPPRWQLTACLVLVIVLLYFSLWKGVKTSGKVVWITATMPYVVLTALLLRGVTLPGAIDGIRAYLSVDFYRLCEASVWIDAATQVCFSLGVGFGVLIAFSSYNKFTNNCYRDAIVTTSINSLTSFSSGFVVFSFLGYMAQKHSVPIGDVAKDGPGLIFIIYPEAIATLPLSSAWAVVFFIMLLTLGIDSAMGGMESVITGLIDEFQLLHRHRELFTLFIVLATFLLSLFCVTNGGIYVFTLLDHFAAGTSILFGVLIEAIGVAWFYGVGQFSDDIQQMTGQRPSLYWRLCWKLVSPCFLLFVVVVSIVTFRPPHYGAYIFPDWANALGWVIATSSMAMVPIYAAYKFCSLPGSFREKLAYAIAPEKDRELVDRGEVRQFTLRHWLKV
Sequence of Sodium-dependent noradrenaline transporter (P23975 whole entry): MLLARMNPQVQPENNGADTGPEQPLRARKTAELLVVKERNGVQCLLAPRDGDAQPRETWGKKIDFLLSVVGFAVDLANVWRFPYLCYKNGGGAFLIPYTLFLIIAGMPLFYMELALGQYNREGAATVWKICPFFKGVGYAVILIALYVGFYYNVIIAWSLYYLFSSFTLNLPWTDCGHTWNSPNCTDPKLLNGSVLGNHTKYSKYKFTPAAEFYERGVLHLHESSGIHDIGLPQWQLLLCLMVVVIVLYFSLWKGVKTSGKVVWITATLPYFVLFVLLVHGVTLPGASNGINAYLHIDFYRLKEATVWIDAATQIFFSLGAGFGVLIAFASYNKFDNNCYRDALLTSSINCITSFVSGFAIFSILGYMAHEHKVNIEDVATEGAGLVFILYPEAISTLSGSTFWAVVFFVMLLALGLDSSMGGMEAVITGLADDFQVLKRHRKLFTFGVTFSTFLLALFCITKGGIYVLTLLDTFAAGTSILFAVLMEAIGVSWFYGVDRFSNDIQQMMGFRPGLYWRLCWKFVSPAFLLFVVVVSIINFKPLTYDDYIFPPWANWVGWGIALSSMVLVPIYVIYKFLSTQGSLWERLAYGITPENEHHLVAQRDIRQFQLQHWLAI
Sequence of Voltage-gated inwardly rectifying potassium channel KCNH2 (Q12809 whole entry): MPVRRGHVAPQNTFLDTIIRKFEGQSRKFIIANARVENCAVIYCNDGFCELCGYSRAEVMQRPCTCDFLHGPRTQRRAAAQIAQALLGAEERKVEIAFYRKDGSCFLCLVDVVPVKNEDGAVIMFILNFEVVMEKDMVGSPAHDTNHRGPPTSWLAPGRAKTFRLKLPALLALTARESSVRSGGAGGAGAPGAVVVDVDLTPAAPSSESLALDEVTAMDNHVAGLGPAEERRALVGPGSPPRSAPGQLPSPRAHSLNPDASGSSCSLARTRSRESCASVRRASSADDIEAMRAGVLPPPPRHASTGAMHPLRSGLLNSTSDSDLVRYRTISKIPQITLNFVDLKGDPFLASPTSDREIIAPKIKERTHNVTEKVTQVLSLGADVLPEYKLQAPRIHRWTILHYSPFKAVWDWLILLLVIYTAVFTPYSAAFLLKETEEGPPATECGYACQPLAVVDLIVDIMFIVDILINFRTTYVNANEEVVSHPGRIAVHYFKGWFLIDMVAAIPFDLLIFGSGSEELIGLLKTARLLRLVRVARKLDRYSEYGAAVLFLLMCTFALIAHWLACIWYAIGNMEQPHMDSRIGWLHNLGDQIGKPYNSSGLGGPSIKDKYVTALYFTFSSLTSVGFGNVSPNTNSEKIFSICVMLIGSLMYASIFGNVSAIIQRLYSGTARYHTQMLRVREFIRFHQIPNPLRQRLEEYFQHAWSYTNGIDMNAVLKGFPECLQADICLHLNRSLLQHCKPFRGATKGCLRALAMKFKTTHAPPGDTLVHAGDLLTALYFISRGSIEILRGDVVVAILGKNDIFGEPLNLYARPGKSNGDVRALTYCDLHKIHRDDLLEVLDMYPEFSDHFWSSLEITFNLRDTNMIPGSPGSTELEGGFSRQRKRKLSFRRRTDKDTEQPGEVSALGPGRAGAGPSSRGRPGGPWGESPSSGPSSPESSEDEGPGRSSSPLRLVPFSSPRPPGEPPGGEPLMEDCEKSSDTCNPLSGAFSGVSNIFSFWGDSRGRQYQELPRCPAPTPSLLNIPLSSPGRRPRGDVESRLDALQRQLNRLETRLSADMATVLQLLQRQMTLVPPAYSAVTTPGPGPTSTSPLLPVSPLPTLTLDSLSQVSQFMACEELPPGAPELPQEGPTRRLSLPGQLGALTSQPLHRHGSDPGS
Sequence of Sodium-dependent serotonin transporter (P31645 whole entry): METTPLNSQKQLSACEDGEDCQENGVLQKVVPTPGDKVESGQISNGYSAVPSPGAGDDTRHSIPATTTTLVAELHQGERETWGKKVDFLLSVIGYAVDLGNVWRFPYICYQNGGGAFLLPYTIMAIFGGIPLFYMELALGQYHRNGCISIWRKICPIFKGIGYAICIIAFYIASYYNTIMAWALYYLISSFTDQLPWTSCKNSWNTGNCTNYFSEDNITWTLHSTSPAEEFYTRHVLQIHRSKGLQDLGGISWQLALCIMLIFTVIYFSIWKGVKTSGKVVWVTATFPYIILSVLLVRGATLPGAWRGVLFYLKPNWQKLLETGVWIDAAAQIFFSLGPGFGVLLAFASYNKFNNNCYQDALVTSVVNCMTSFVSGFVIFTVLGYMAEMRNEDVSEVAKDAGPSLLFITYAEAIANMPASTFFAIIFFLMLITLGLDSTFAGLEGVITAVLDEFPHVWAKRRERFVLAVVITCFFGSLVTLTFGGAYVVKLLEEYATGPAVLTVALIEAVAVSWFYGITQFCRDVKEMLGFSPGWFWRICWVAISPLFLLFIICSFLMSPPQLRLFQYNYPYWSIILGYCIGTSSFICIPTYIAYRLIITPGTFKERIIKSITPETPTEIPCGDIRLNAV

IC50 [2] [nM] | IC50 [3] [nM] | IC50 [4] [nM] | Ki [5] [nM] | Compound | Ki [1] [nM]
14 | 40000 | 19000 |  | CCCCN(C1CCNCC1)S(=O)(=O)c1ccc2ccccc2c1 | 716
20 | 1200 | 3800 |  | c1ccc2cc(CO[C@@H]3CCNC3)ccc2c1 | 16400
16 | 5600 | > 30000 |  | CCCCN([C@H]1CCNC1)S(=O)(=O)c1ccc2ccccc2c1 | 412
5 | 80 | 66 |  | CC(C)CN(Cc1ccc2ccccc2c1)[C@@H]1CCNC1 | 
119 | 3000 | 3000 |  | CN(Cc1ccc2ccccc2c1)[C@@H]1CCNC1 | 
8 | 1800 | > 7000 | 311 | c1ccc2cc(OCC3CCNCC3)ccc2c1 | 
2 | 1500 | 210 |  | c1ccc2cc(CN(C3CCC3)C3CCNCC3)ccc2c1 | 
> 400 |  |  |  | CN([C@H]1CCNC1)S(=O)(=O)c1ccc2ccccc2c1 | 
25 | 1400 | 1000 |  | c1ccc2cc(OCC3CCNC3)ccc2c1 (racemic) | > 5500
138 | 3000 |  |  | CN([C@@H]1CCNC1)S(=O)(=O)c1ccc2ccccc2c1 | 
13 | 5400 | 7700 |  | CN(Cc1ccc2ccccc2c1)[C@H]1CCNC1 | > 5000
0.3 | 80 | 88 |  | CCCCN(Cc1ccc2ccccc2c1)[C@H]1CCNC1 | 
23 | 2900 | 15000 |  | c1ccc2cc(CO[C@H]3CCNC3)ccc2c1 | 15700
30 | 2600 | > 30000 |  | CCN([C@@H]1CCNC1)S(=O)(=O)c1ccc2ccccc2c1 | 

Second part, the molecule before the results:

Compound | IC50 [2] [nM] | IC50 [3] [nM] | IC50 [4] [nM] | Ki [5] [nM] | Ki [1] [nM]
Fc1ccc2cc(CCN3CCNCC3)ccc2c1 | 11 | 10500 | 24000 |  | 8500
N#Cc1ccc2ccc(OCC3CCNCC3)cc2c1 | 3 | 4400 | 8800 | 404 | 3500
c1ccc2cc(CCN3CCNCC3)ccc2c1 | 88 |  |  |  | 
Fc1ccc2cc(CO[C@@H]3CCNC3)ccc2c1 | 4 | 10600 | 2100 |  | 10300
N#Cc1ccc2cc(CO[C@H]3CCNC3)ccc2c1 | 3 | 6800 | 861 |  | 4500
CCN(C1CCNCC1)S(=O)(=O)c1ccc2ccccc2c1 | > 400 | > 10000 | > 10000 |  | 
c1ccc2cc(COC3CCNCC3)ccc2c1 [LITOXETINE] | 6 | 6500 | 1300 |  | 
N#Cc1ccc2cc(OCC3CCNCC3)ccc2c1 | 15 | 1900 | 6000 |  | 
N#Cc1ccc2cc(OC[C@@H]3CCNC3)ccc2c1 | 42 | 772 |  |  | 
N#Cc1ccc2cc(OC[C@H]3CCNC3)ccc2c1 | 37 | 200 |  |  | 
Cc1c(CCN2CCNCC2)ccc2cc(F)ccc12 | 4 | 8400 | > 31000 |  | 10100
COCC(Oc1ccc2ccccc2c1)C1CCNCC1 (racemic) | 5 | 827 |  | > 10000 | 
